According to patent US7772241B2, “Variolin derivatives and their use as antitumor agents” (Pharma Mar S.A., priority 2001, dated 2010):
Where two headings read alike, the source gives them in different places.

Legend:
HT-29 = test: Inhibition of cells growth by colorimetric (SRB) assay, HT-29; settings: for GI50 / CC50: Homo sapiens, HT-29, 48 h; for GI50: read-out: GI50 HT-29, SRB assay, 48 hours exposure; for CC50: read-out: LC50 HT-29, SRB assay, 48 hours exposure; for TGI HT-29: SRB assay, 48 hours exposure
How it was run: (§1)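 Human tumour cells in RPMI 1640 with 10% FBS were seeded at 5×10^3 cells/well, allowed to attach for 18 h, then exposed to samples at 10 to 10^−8 μg/ml for 48 h. Growth was measured by SRB staining after TCA fixation, with absorbance read at 490 nm in triplicate wells.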

PANC-1 = test: Inhibition of cells growth by colorimetric (SRB) assay, PANC-1; settings: for CC50: read-out: LC50 PANC-1, SRB assay, 48 hours exposure
How it was run: as §1

SK-MEL-28 = test: Inhibition of cells growth by colorimetric (SRB) assay, SK-MEL-28; settings: for CC50: read-out: LC50 MEL-28, SRB assay, 48 hours exposure
How it was run: as §1

SK-OV-3 = test: Inhibition of cells growth by colorimetric (SRB) assay, SK-OV-3; settings: for CC50: read-out: LC50 SKOV-3, SRB assay, 48 hours exposure
How it was run: as §1

LNCaP = test: Inhibition of cells growth by colorimetric (SRB) assay, LNCaP
How it was run: as §1

A-549 = test: Inhibition of cells growth by colorimetric (SRB) assay, A-549; settings: for CC50: read-out: LC50 A-549, SRB assay, 48 hours exposure
How it was run: as §1

K-562 = test: Inhibition of cells growth by colorimetric (SRB) assay, K-562; settings: for GI50 / CC50: Homo sapiens, K562, 48 h; for GI50: read-out: GI50 K-562, SRB assay, 48 hours exposure; for CC50: read-out: LC50 K-562, SRB assay, 48 hours exposure; for TGI K-562: SRB assay, 48 hours exposure
How it was run: as §1

IGROV-1 = test: Inhibition of cells growth by colorimetric (SRB) assay, IGROV-1
How it was run: as §1

LoVo-Dox = test: Inhibition of cells growth by colorimetric (SRB) assay, LoVo-Dox; settings: for GI50 / CC50: Homo sapiens, 48 h; for GI50: read-out: GI50 LOVO-DOX, SRB assay, 48 hours exposure; for CC50: read-out: LC50 LOVO-DOX, SRB assay, 48 hours exposure; for TGI LOVO-DOX: SRB assay, 48 hours exposure
How it was run: as §1

LoVo = test: Inhibition of cells growth by colorimetric (SRB) assay, LoVo; settings: for CC50: read-out: LC50 LOVO, SRB assay, 48 hours exposure
How it was run: as §1

IGROV-ET = test: Inhibition of cells growth by colorimetric (SRB) assay, IGROV-ET; settings: for CC50: read-out: LC50 IGROV-ET, SRB assay, 48 hours exposure
How it was run: as §1

SK-BR-3 = test: Inhibition of cells growth by colorimetric (SRB) assay, SK-BR-3; settings: for CC50: read-out: LC50 SK-BR-3, SRB assay, 48 hours exposure
Source text: The finality of these assays is to interrupt the growth of a “in vitro” tumor cell culture by means a continued exhibition of the cells to the sample to be testing.
This form of the assay employs 96 well cell culture microplates of 9 mm diameter (Faircloth, 1988; Mosmann, 1983). Most of the cell lines are obtained from American Type Culture Collection (ATCC) derived from different human cancer types.
Cells are maintained in RPMI 1640 10% FBS, supplemented with 0.1 g/l penicillin and 0.1 g/l streptomycin sulphate and then incubated at 37° C., 5% CO2 and 98% humidity. For the experiments, cells were harvested from subconfluent cultures using trypsin and resuspended in fresh medium before plating.
Cells are seeded in 96 well microtiter plates, at 5×10^3 cells per well in aliquots of 195 μl medium, and they are allowed to attach to the plate surface by growing in drug free medium for 18 hours. Afterward, samples are added in aliquots of 5 μl in a ranging from 10 to 10^−8 μg/ml, dissolved in DMSO/EtOH/PBS (0.5:0.5:99). After 48 hours exposure, the antitumor effect are measured by the SRB methodology: cells are fixed by adding 50 μl of cold 50% (wt/vol) trichloroacetic acid (TCA) and incubating for 60 minutes at 4° C. Plates are washed with deionized water and dried. One hundred μl of SRB solution (0.4% wt/vol in 1% acetic acid) is added to each microtiter well and incubated for 10 minutes at room temperature. Unbound SRB is removed by washing with 1% acetic acid. Plates are air dried and bound stain is solubilized with Tris buffer. Optical densities are read on a automated spectrophotometric plate reader at a single wavelength of 490 nm.
The values for mean +/−SD of data from triplicate wells are calculated. Some parameters for cellular responses can be calculated: GI=growth inhibition, TGI=total growth inhibition (cytostatic effect) and LC=cell killing (cytotoxic effect).

DU-145 = test: Inhibition of cells growth by colorimetric (SRB) assay, DU-145; settings: for CC50: read-out: LC50 DU-145, SRB assay, 48 hours exposure
How it was run: as §1

[1] = Homo sapiens, PANC-1, 48 h, read-out: GI50 PANC-1, SRB assay, 48 hours exposure
[2] = Homo sapiens, SK-MEL-28, 48 h, read-out: GI50 MEL-28, SRB assay, 48 hours exposure
[3] = Homo sapiens, SK-OV-3, 48 h, read-out: GI50 SKOV-3, SRB assay, 48 hours exposure
[4] = Homo sapiens, LNCaP, 48 h, read-out: GI50 LN-caP, SRB assay, 48 hours exposure
[5] = Homo sapiens, LNCaP, 48 h, read-out: LC50 LN-caP, SRB assay, 48 hours exposure
[6] = Homo sapiens, A549, 48 h, read-out: GI50 A-549, SRB assay, 48 hours exposure
[7] = Homo sapiens, IGROV-1, 48 h, read-out: GI50 IGROV, SRB assay, 48 hours exposure
[8] = Homo sapiens, IGROV-1, 48 h, read-out: LC50 IGROV, SRB assay, 48 hours exposure
[9] = Homo sapiens, LoVo, 48 h, read-out: GI50 LOVO, SRB assay, 48 hours exposure
[10] = Homo sapiens, 48 h, read-out: GI50 IGROV-ET, SRB assay, 48 hours exposure
[11] = Homo sapiens, SK-BR-3, 48 h, read-out: GI50 SK-BR-3, SRB assay, 48 hours exposure
[12] = Homo sapiens, DU-145, 48 h, read-out: GI50 DU-145, SRB assay, 48 hours exposure

Row | SMILES | GI50 (HT-29) | CC50 (HT-29) | TGI HT-29 (HT-29) | CC50 (PANC-1; Homo sapiens, PANC-1, 48 h) | TGI PANC-1 (PANC-1; SRB assay, 48 hours exposure) | CC50 (SK-MEL-28; Homo sapiens, SK-MEL-28, 48 h) | TGI MEL-28 (SK-MEL-28; SRB assay, 48 hours exposure) | CC50 (SK-OV-3; Homo sapiens, SK-OV-3, 48 h) | TGI SKOV-3 (SK-OV-3; SRB assay, 48 hours exposure) | TGI LN-caP (LNCaP; SRB assay, 48 hours exposure) | CC50 (A-549; Homo sapiens, A549, 48 h) | TGI A-549 (A-549; SRB assay, 48 hours exposure) | GI50 (K-562) | CC50 (K-562) | TGI K-562 (K-562) | TGI IGROV (IGROV-1; SRB assay, 48 hours exposure) | GI50 (LoVo-Dox) | CC50 (LoVo-Dox) | TGI LOVO-DOX (LoVo-Dox) | CC50 (LoVo; Homo sapiens, LoVo, 48 h) | further results
1 | COc1ccc2nc3c(cc2c1)c(-c1ccnc(N)n1)c1ccnc(N)n13 [Compound 19b] | 15.2 µM | 28 µM | 2.80E−05 | 28 µM | 2.80E−05 | 28 µM | 1.65E−05 | 28 µM | 1.89E−05 | 8.59E−06 | 28 µM | 2.80E−05 | 8.48 µM | 28 µM | 1.59E−05 | 8.93E−06 | 7.42 µM | 28 µM | 2.10E−05 | 28 µM | GI50 (PANC-1; [1]): 8.87 µM; GI50 (SK-MEL-28; [2]): 4.92 µM; GI50 (SK-OV-3; [3]): 8.28 µM; GI50 (LNCaP; [4]): 2.36 µM; CC50 (LNCaP; [5]): 27.6 µM; GI50 (A-549; [6]): 0.453 µM; GI50 (IGROV-1; [7]): 4.11 µM; CC50 (IGROV-1; [8]): 19.4 µM; GI50 (LoVo; [9]): 3.25 µM; TGI LOVO (LoVo; SRB assay, 48 hours exposure): 1.97E−05; GI50 (IGROV-ET; [10]): 3.27 µM; CC50 (IGROV-ET; Homo sapiens, 48 h): 20.4 µM; TGI IGROV-ET (IGROV-ET; SRB assay, 48 hours exposure): 8.17E−06; GI50 (SK-BR-3; [11]): 1.89 µM; CC50 (SK-BR-3; Homo sapiens, SK-BR-3, 48 h): 28 µM; TGI SK-BR-3 (SK-BR-3; SRB assay, 48 hours exposure): 8.23E−06; GI50 (DU-145; [12]): 5.79 µM; CC50 (DU-145; Homo sapiens, DU-145, 48 h): 28 µM; TGI DU-145 (DU-145; SRB assay, 48 hours exposure): 2.39E−05
2 | CSc1nccc(-c2c3cccnc3n3ccccc23)n1 [Compound 55] | 13.2 µM | ≥ 34.2 µM | 3.42E−05 | ≥ 34.2 µM | 2.91E−05 | ≥ 34.2 µM | 3.20E−05 | ≥ 34.2 µM | 2.09E−05 | 1.55E−05 | ≥ 34.2 µM | 1.90E−05 | 9.71 µM | ≥ 34.2 µM | 1.83E−05 | 1.53E−05 | 3.93 µM | 26.4 µM | 1.02E−05 | ≥ 34.2 µM | GI50 (PANC-1; [1]): 8.79 µM; GI50 (SK-MEL-28; [2]): 11.6 µM; GI50 (SK-OV-3; [3]): 7.73 µM; GI50 (LNCaP; [4]): 6.84 µM; CC50 (LNCaP; [5]): ≥ 34.2 µM; GI50 (A-549; [6]): 7.29 µM; GI50 (IGROV-1; [7]): 7.42 µM; CC50 (IGROV-1; [8]): ≥ 34.2 µM; GI50 (LoVo; [9]): 9.92 µM; TGI LOVO (LoVo; SRB assay, 48 hours exposure): 3.42E−05; GI50 (IGROV-ET; [10]): 8.79 µM; CC50 (IGROV-ET; Homo sapiens, 48 h): ≥ 34.2 µM; TGI IGROV-ET (IGROV-ET; SRB assay, 48 hours exposure): 2.00E−05; GI50 (SK-BR-3; [11]): 8.82 µM; CC50 (SK-BR-3; Homo sapiens, SK-BR-3, 48 h): ≥ 34.2 µM; TGI SK-BR-3 (SK-BR-3; SRB assay, 48 hours exposure): 2.32E−05; GI50 (DU-145; [12]): 11.4 µM; CC50 (DU-145; Homo sapiens, DU-145, 48 h): ≥ 34.2 µM; TGI DU-145 (DU-145; SRB assay, 48 hours exposure): 3.38E−05
3 | Nc1nccc2c(-c3ccncn3)c3c(O)ccnc3n12 [Compound 100] | 14.9 µM | ≥ 25.5 µM | 2.55E−05 | ≥ 25.5 µM | 2.55E−05 | ≥ 25.5 µM | 8.08E−06 | ≥ 25.5 µM | 9.84E−06 | 3.29E−06 | ≥ 25.5 µM | 2.63E−06 | 6.78 µM | ≥ 25.5 µM | 1.49E−05 | 4.69E−06 | 1.18 µM | ≥ 25.5 µM | 1.30E−05 | ≥ 25.5 µM | GI50 (PANC-1; read-out: GI50 PANC-1, SRB assay, 48 hours exposure): 4.92 µM; GI50 (SK-MEL-28; read-out: GI50 MEL-28, SRB assay, 48 hours exposure): 1.32 µM; GI50 (SK-OV-3; read-out: GI50 SKOV-3, SRB assay, 48 hours exposure): 1.74 µM; GI50 (LNCaP; read-out: GI50 LN-caP, SRB assay, 48 hours exposure): 1.05 µM; CC50 (LNCaP; read-out: LC50 LN-caP, SRB assay, 48 hours exposure): 10.9 µM; GI50 (A-549; read-out: GI50 A-549, SRB assay, 48 hours exposure): 0.678 µM; GI50 (IGROV-1; read-out: GI50 IGROV, SRB assay, 48 hours exposure): 1.4 µM; CC50 (IGROV-1; read-out: LC50 IGROV, SRB assay, 48 hours exposure): 13.2 µM; TGI LOVO (LoVo; SRB assay, 48 hours exposure): 5.12E−06; GI50 (LoVo; read-out: GI50 LOVO, SRB assay, 48 hours exposure): 0.877 µM; CC50 (IGROV-ET; Homo sapiens, 48 h): 22.9 µM; TGI IGROV-ET (IGROV-ET; SRB assay, 48 hours exposure): 2.33E−06; GI50 (IGROV-ET; read-out: GI50 IGROV-ET, SRB assay, 48 hours exposure): 0.683 µM; CC50 (SK-BR-3; Homo sapiens, SK-BR-3, 48 h): 10.6 µM; TGI SK-BR-3 (SK-BR-3; SRB assay, 48 hours exposure): 1.52E−06; GI50 (SK-BR-3; read-out: GI50 SK-BR-3, SRB assay, 48 hours exposure): 0.464 µM; CC50 (DU-145; Homo sapiens, DU-145, 48 h): ≥ 25.5 µM; TGI DU-145 (DU-145; SRB assay, 48 hours exposure): 5.25E−06; GI50 (DU-145; read-out: GI50 DU-145, SRB assay, 48 hours exposure): 0.739 µM
